Reference: ChEMBL document CHEMBL1147855, “Synthesis and evaluation of sulfonylurea derivatives as novel antimalarials” (Eur J Med Chem, 2007)

Columns and labels:
Mus musculus = assay: Survival of NIH mice (Mus musculus) infected with Plasmodium berghei ANKA infected erythrocytes at 20 mg/kg, intraperitoneal after 4 days by Peter's test; assay type: functional
Plasmodium berghei = assay: Antimalarial activity against Plasmodium berghei ANKA at 20 mg/kg intraperitoneal dose as reduced parasitaemia by Peter's assay; assay type: functional; set-up: scale not given: the % may be the effect or the level left
[1] = Inhibition of hemoglobin hydrolysis in mouse erythrocytes at 5 mM after 18 hrs relative to control; assay type: cell-based; settings: Erythrocyte
Plasmodium falciparum = assay: Antimalarial activity against chloroquine-resistant Plasmodium falciparum W2 after 48 hrs by FACS; assay type: functional, organism-based; settings: W2, 48 h

| SMILES | Survival (Mus musculus) | Activity (Plasmodium berghei) | inhibition at 5000 µM [1] | IC50 (Plasmodium falciparum) |
| --- | --- | --- | --- | --- |
| O=C(Nc1ccc(C(=O)/C=C/c2ccc3c(c2)OCO3)cc1)NS(=O)(=O)c1ccc(Cl)cc1 | 2.16 days | 3.4% | 50.6% | 9.7 µM |
| Cc1ccc(S(=O)(=O)NC(=O)Nc2ccc(C(=O)/C=C/c3ccc(F)cc3)cc2)cc1 |  |  |  | 10 µM |
| Cc1ccc(S(=O)(=O)NC(=O)Nc2ccc(C(=O)/C=C/c3ccc4c(c3)OCO4)cc2)cc1 |  |  |  | 9.6 µM |
| Cc1ccc(S(=O)(=O)NC(=O)Nc2ccc(C(=O)/C=C/c3cc4ccccc4nc3Cl)cc2)cc1 |  |  |  | 9.6 µM |
| COc1cc2cc(/C=C/C(=O)c3ccc(NC(=O)NS(=O)(=O)c4ccc(C)cc4)cc3)c(Cl)nc2cc1OC |  |  |  | 10 µM |
| O=C(Nc1ccc(C(=O)/C=C/c2ccc(F)cc2)cc1)NS(=O)(=O)c1ccc(Cl)cc1 | 1 days | 10.6% | 34.5% | 10 µM |
| COc1cc(/C=C/C(=O)c2ccc(NC(=O)NS(=O)(=O)c3ccc(Cl)cc3)cc2)cc(OC)c1OC | 1.83 days | 8% | 36.7% | 9.4 µM |
| Cc1ccc(S(=O)(=O)NC(=O)Nc2ccc(C(=O)/C=C/c3ccc(F)cc3F)cc2)cc1 | 1 days | 15.2% | 90.3% | 1.2 µM |
| COc1cc(/C=C/C(=O)c2ccc(NC(=O)NS(=O)(=O)c3ccc(C)cc3)cc2)cc(OC)c1OC |  |  |  | 8.8 µM |
| O=C(Nc1ccc(C(=O)/C=C/c2ccc(F)cc2F)cc1)NS(=O)(=O)c1ccc(Cl)cc1 | 3 days | 5.2% |  | 2.1 µM |
| CCN(CC)CCCC(C)Nc1ccnc2cc(Cl)ccc12 (configuration not stated) [CHLOROQUINE] |  | 3.66% |  |  |
| CC(=O)N[C@@H](CC(C)C)C(=O)N[C@@H](CC(C)C)C(=O)N[C@H](C=O)CCCNC(=N)N [LEUPEPTIN] |  |  | 87% |  |
| CC(C)CC(=O)N[C@H](C(=O)N[C@H](C(=O)N[C@@H](CC(C)C)[C@@H](O)CC(=O)N[C@@H](C)C(=O)N[C@@H](CC(C)C)[C@@H](O)CC(=O)O)C(C)C)C(C)C [PEPSTATIN] |  |  | 91.9% |  |
